Consider 3 compounds from patent US7625929B2, “Oxophenyl-cyclohexyl-propanolamine derivatives, production and use thereof in therapeutics” (sanofi-aventis, priority 2002, dated 2009).

What is called melting point is the temperature, or range, at which the solid turns liquid.

SMILES strings stand for the structures.

In turn, `CS(=O)(=O)c1cc(OC[C@@H](O)CN[C@H]2CC[C@H](c3ccc(C(=O)N4CCC5(CC4)Cc4ccccc4C5)cc3)CC2)ccc1O` [compound No. 13, trans-4-{[(2S)-3-({4-[4-(1,3-dihydro-1′H-spiro[indene-2,4′-piperidin]-1′-ylcarbonyl)phenyl]-cyclohexyl}amino)-2-hydroxypropyl]oxy}-2-(methylsulfonyl)phenol] came in with a melting point of 125 °C. `CS(=O)(=O)c1cc(OC[C@@H](O)CN[C@H]2CC[C@H](c3ccc(C(=O)N4CCC5(CCc6ccccc65)CC4)cc3)CC2)ccc1O` [compound No. 15, trans-4-{[(2S)-3-({4-[4-(2,3-dihydro-1′H-spiro[indene-1,4′-piperidin]-1′-ylcarbonyl)phenyl]-cyclohexyl}amino)-2-hydroxypropyl]oxy}-2-(methylsulfonyl)phenol] registered a melting point of 125 °C. Next, `CS(=O)(=O)c1cc(OC[C@@H](O)CN[C@H]2CC[C@H](c3ccc(C(=O)N4CCC5(CCCc6ccccc65)CC4)cc3)CC2)ccc1O` [compound No. 17, trans-4-{[(2S)-3-({4-[4-(3,4-dihydro-1′H-spiro[naphthalene-1,4′-piperidin]-1′-ylcarbonyl)phenyl]cyclohexyl}amino)-2-hydroxypropyl]-oxy}-2-(methylsulfonyl)phenol]: 125 °C.
